The values that follow come from ChEMBL document CHEMBL5120866, “Design and Synthesis of Novel Celastrol Derivatives as Potential Anticancer Agents against Gastric Cancer Cells” (J Nat Prod, 2022).

Series [1] concerns HepG2. Briefly: Antiproliferative activity against human HepG2 cells assessed as cell growth inhibition incubated for 48 hrs by MTT assay. Format: functional, cell-based. The note with it: HepG2, 48 h. (In general: Tetrazolium assays rely on reduction of a dye to a coloured formazan, in cell work by metabolically active cells.)
Series [2] concerns BGC-823. Briefly: Induction of cell cycle arrest in human BGC-823 cells assessed as accumulation of cells at S phase at 0.6 uM incubated for 24 hrs by PI staining based flow cytometry method (reference value: 26.01%). The class given is functional.
Series [3] relates to BGC-823. Put plainly: Induction of apoptosis in human BGC-823 cells assessed as viable cells at 0.15 uM incubated for 24 hrs by annexin-V-FITC and PI staining based flow cytometry analysis (reference value: 96.3%). Format: functional. The settings on record: read-out: Activity. In general terms: A flow cytometer gives signals particle by particle.
Series [4] is described as follows: Toxicity in athymic BALB/c nude mouse assessed as effect on liver at 1.5 mg/kg, ip measured after 21 days by H and E staining based histopathological analysis. Format: organism-based. The note with it: in vivo, 504 h, time 21 day.
The subject of series [5] is BGC-823. Put plainly: Antiproliferative activity against human BGC-823 cells assessed as cell growth inhibition incubated for 48 hrs by MTT assay. Format: functional, cell-based. The settings on record: BGC-823, 48 h.
Series [6] deals with BGC-823. Briefly: Antitumor activity against human BGC-823 cells xenografted in athymic BALB/c nude mouse assessed as tumor growth inhibition rate at 1.5 mg/kg, ip measured every 2 days for 21 days by curson caliper method relative to control. The class given is functional. The settings on record: BGC-823, 504 h, time 21 day, read-out: TGI. (In general: In xenograft studies the graft and the host belong to different species.)

In series [7] the test system is BGC-823. Briefly: Induction of cell cycle arrest in human BGC-823 cells assessed as accumulation of cells at S phase at 0.15 uM incubated for 24 hrs by PI staining based flow cytometry method (reference value: 26.01%). The class given is functional.
The test system of series [8] is BGC-823. Put plainly: Downregulation of Cdc2 protein expression in human BGC-823 cells at 0.15 to 0.6 uM incubated for 24 hrs by Western blot analysis. Format: functional, cell-based. The settings on record: dose 0.15-0.6 µM.
Series [9] concerns BGC-823. Briefly: Induction of apoptosis in human BGC-823 cells assessed as late apoptotic cells at 0.3 uM incubated for 24 hrs by annexin-V-FITC and PI staining based flow cytometry analysis (reference value: 0.6%). The class given is functional.
Series [10] relates to BGC-823. Briefly: Antitumor activity against human BGC-823 cells xenografted in athymic BALB/c nude mouse assessed as reduction in mitosis at 1.5 mg/kg, ip measured after 21 days by H and E staining based analysis. The class given is functional, organism-based. The note with it: time 21.0 day.
In series [11] the test system is BGC-823. Put plainly: Induction of apoptosis in human BGC-823 cells assessed as increase in cleaved-caspase 9 expression at 0.15 to 0.6 uM incubated for 24 hrs by Western blot analysis. Format: functional, cell-based. The settings on record: dose 0.15-0.6 µM.
Series [12] concerns BGC-823. Put plainly: Downregulation of cyclin B1 protein expression in human BGC-823 cells at 0.15 to 0.6 uM incubated for 24 hrs by Western blot analysis. The class given is functional, cell-based. The note with it: dose 0.15-0.6 µM.
The subject of series [13] is BGC-823. Briefly: Induction of apoptosis in human BGC-823 cells assessed as necrotic cells at 0.15 uM incubated for 24 hrs by annexin-V-FITC and PI staining based flow cytometry analysis (reference value: 0.6%). The class given is functional.
In series [14] the test system is BGC-823. Briefly: Induction of apoptosis in human BGC-823 cells assessed as early apoptotic cells at 0.15 uM incubated for 24 hrs by annexin-V-FITC and PI staining based flow cytometry analysis (reference value: 2.4%). Format: functional.
Series [15] relates to BGC-823. Put plainly: Induction of cell cycle arrest in human BGC-823 cells assessed as accumulation of cells at G2/M phase at 0.3 uM incubated for 24 hrs by PI staining based flow cytometry method (reference value: 22.86%). Format: functional.

Activity calls are given as the source filed them. No cut-off for these calls is given here.

In general, IC50 refers to the concentration at which inhibition is half-maximal. Take `CCOC(=O)c1cnn(CCCOC(=O)[C@]2(C)CC[C@]3(C)CC[C@]4(C)C5=CC=C6C(=CC(=O)C(O)=C6C)[C@]5(C)CC[C@@]4(C)[C@@H]3C2)c1`: the IC50 in series [1] is 350 nM; in series [5], 210 nM. The Activity in [2] is 24.75%; in series [4], “Non-Toxic”; in series [7] it was 26.07%; in series [9], 4.8%; in series [13] it was 0.2%; in series [14], 4.4%. Besides, in series [15], the Activity turned out to be 27.71%. The viability at 0.15 µM in series [3] worked out at 94.9%. In series [6], the inhibition in vivo at 1.5 mg/kg worked out at 89.8%. Besides, the outcome in series [8], in series [10], in series [11] and in [12] was Active.
